Data on 16 molecules can be found in US20240308995A1, “O-GLYCOPROTEIN-2-ACETAMIDO-2-DEOXY-3-D-GLUCOPYRANOSIDASE INHIBITORS” (BIOGEN MA INC., priority 2018, published 2024).

In one series the test system is P-gp (MDR1). The experiment in a line: MDR1-MDCK Efflux Ratio Assay. It counts as in vitro ADME. The note with it: dog, MDCK-MDR1, pH 7.4, MDR1-MDCK cells, 2 hr, pH 7.4; read-out: MDR1-MDCK Efflux Ratio (B-A/A-B). In a few lines: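 Bidirectional (apical↔basolateral) transport across confluent MDR1-MDCK monolayers in HBSS/10 mM HEPES pH 7.4, receiver buffer with 1% BSA; 2 hr at 37° C, 5% CO2. Donor sampled at 0 and 120 min, receiver at 120 min, quantified by LC-MS/MS in triplicate. Papp, efflux ratio and percent recovery calculated.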

Series [1] concerns the target Recombinant full length human OGA enzyme (Homo sapiens (Human), UniProt O60502). The experiment in a line: OGA Enzyme Inhibition Biochemical Assay. The note with it: 1 nM OGA, 100 μM 4-MUGlcNAc, pH 6.4. In a few lines: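 Full-length recombinant human OGA with fluorogenic 4-MUGlcNAc in McIlvaine buffer pH 6.4, 0.01% BSA; 90 min at room temperature, glycine pH 10 quench, fluorescence Ex 355/Em 460 nm. 10-point, 4-fold dilution from 20 μM; 4-parameter variable-slope fit.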

Series [2] in a line: Rat Liver Microsome Stability Assay. It counts as in vitro ADME. The note with it: rat liver microsomes, 1 uM compound. In general terms: Liver microsomes are a subcellular fraction often used to study metabolism.
Series [3] concerns the target OGA (S400 O-GLCNAC), HEK-293T cells transfected with Tau-V5 (Homo sapiens (Human), UniProt O60502). The experiment in a line: Cellular OGA-Tau MSD Assay. The settings on record: HEK-293T cells, Tau-S400-GlcNAc MSD readout. It counts as cell-based. In outline: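 HEK-293T cells transfected with OGA and Tau-V5 plasmids were treated overnight at 37° C with a 10-point, 3-fold titration from 1 uM. Lysates went onto V5-antibody MSD plates to capture Tau, probed with a Tau O-GlcNAc antibody and read by electrochemiluminescence; IC50 from a 4-parameter fit.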

Molecules are shown by their SMILES.

Chain of Recombinant full length human OGA enzyme (O60502 whole entry): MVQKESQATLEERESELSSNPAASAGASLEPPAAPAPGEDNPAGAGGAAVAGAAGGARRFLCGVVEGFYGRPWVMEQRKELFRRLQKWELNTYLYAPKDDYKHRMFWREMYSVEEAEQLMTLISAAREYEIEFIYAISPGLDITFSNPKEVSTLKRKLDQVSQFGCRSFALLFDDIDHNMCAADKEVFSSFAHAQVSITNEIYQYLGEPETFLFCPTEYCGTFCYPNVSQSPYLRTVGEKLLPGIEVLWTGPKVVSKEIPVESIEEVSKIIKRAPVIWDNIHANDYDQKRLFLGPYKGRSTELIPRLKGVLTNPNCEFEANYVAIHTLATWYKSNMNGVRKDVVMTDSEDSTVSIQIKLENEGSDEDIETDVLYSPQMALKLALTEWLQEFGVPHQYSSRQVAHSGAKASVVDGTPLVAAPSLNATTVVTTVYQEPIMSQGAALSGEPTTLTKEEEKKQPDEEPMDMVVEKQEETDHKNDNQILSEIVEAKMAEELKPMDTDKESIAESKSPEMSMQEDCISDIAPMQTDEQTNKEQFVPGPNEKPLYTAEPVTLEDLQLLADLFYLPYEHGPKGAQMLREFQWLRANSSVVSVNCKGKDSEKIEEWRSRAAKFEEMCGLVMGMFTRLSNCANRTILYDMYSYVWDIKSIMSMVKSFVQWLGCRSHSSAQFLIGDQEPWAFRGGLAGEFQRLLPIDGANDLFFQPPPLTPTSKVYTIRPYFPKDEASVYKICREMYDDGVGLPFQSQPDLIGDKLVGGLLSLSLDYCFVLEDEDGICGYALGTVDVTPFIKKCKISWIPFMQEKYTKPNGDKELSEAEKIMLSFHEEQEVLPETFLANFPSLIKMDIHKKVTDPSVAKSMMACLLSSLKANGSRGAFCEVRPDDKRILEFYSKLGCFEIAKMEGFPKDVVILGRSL
Chain of OGA (S400 O-GLCNAC), HEK-293T cells transfected with Tau-V5 (O60502 whole entry): as above

By IC50 is commonly meant the concentration that inhibits the measured activity by half. Consider `CC(=O)Nc1nc(F)c(CN2C[C@H](Oc3cncnc3)C[C@@H]2C)s1` [Example 1-119, N-(4-fluoro-5-(((2S,4R)-2-methyl-4-(pyrimidin-5-yloxy)pyrrolidin-1-yl)methyl)thiazol-2-yl)acetamide], for which the efflux ratio at 2 h in the series on P-gp (MDR1) came to 6.3. Moreover, the concentration for half-maximal inhibition (IC50) in series [1] worked out at 1.3 nM; in series [3] it was 19 nM. In series [2], the “RLM % Qh (%)” value worked out at 50%.

Consider `CO[C@H]1C[C@H](Oc2cc(O[C@@H]3C[C@H](C)N(Cc4cnc(NC(C)=O)s4)C3)ncn2)C1` [Example 1-120, N-(5-(((2S,4R)-4-((6-((1r,3R)-3-methoxycyclobutoxy)pyrimidin-4-yl)oxy)-2-methylpyrrolidin-1-yl)methyl)thiazol-2-yl)acetamide], for which, in the series with P-gp (MDR1), the efflux ratio at 2 h turned out to be 10.3. Also, the IC50 in series [1] is below 1 nM; in series [3], 2 nM. Further, the “RLM % Qh (%)” value in series [2] turned out to be 64%.

Consider `COCCOc1cc(O[C@@H]2C[C@H](C)N(Cc3cnc(NC(C)=O)s3)C2)ncn1` [Example 1-122, N-(5-(((2S,4R)-4-((6-(2-methoxyethoxy)pyrimidin-4-yl)oxy)-2-methylpyrrolidin-1-yl)methyl)thiazol-2-yl)acetamide], for which the efflux ratio at 2 h in the series with P-gp (MDR1) came to 2.1. Also, the 50% inhibitory concentration (IC50) was below 1 nM in series [1] and 3 nM in series [3]. Besides, the “RLM % Qh (%)” value in series [2] is given as 32%.

`CO[C@H]1C[C@@H](Oc2cc(O[C@@H]3C[C@H](C)N(Cc4cnc(NC(C)=O)s4)C3)ncn2)C1` [Example 1-123, N-(5-(((2S,4R)-4-((6-((1s,3S)-3-methoxycyclobutoxy)pyrimidin-4-yl)oxy)-2-methylpyrrolidin-1-yl)methyl)thiazol-2-yl)acetamide]: the efflux ratio at 2 h in the series on P-gp (MDR1) is 5.7. Moreover, the IC50 in series [1] was 1.1 nM; in series [3] it was 5 nM. In addition, in series [2], the “RLM % Qh (%)” value was 55%.

As to `CC(=O)Nc1ncc(CN2C[C@H](Oc3cc(OC4COC4)ncn3)C[C@@H]2C)s1` [Example 1-124, N-(5-(((2S,4R)-2-methyl-4-((6-(oxetan-3-yloxy)pyrimidin-4-yl)oxy)pyrrolidin-1-yl)methyl)thiazol-2-yl)acetamide], the efflux ratio at 2 h with P-gp (MDR1) is 11.2. In addition, the concentration for half-maximal inhibition (IC50) in series [1] was below 1 nM; in series [3], 3 nM. In addition, the “RLM % Qh (%)” value in series [2] worked out at 16%.

For the molecule `CCOc1cc(O[C@@H]2C[C@H](C)N(Cc3cnc(NC(C)=O)s3)C2)ncn1` [Example 1-126, N-(5-(((2S,4R)-4-((6-ethoxypyrimidin-4-yl)oxy)-2-methylpyrrolidin-1-yl)methyl)thiazol-2-yl)acetamide], in the series with P-gp (MDR1), the efflux ratio at 2 h came to 3.8. In addition, the results for the IC50 in series [1] and in series [3] were below 1 nM and 2 nM, respectively. In addition, the “RLM % Qh (%)” value in series [2] is 48%.

Turning to `CC(=O)Nc1ncc(CN2C[C@H](Oc3cc(OC(C)C)ncn3)C[C@@H]2C)s1` [Example 1-127, N-(5-(((2S,4R)-4-((6-isopropoxypyrimidin-4-yl)oxy)-2-methylpyrrolidin-1-yl)methyl)thiazol-2-yl)acetamide], in the series on P-gp (MDR1), the efflux ratio at 2 h came out at 3.1. The half-inhibitory concentration (IC50) in series [1] came to 1.9 nM; in series [3], 8 nM. Further, the “RLM % Qh (%)” value in series [2] was 62%.

On to `CC(=O)Nc1ncc(CN2C[C@H](Oc3cc(C)nc(C)n3)C[C@@H]2C)s1` [Example 1-128, N-(5-(((2S,4R)-4-((2,6-dimethylpyrimidin-4-yl)oxy)-2-methylpyrrolidin-1-yl)methyl)thiazol-2-yl)acetamide], for which the efflux ratio at 2 h in the series on P-gp (MDR1) was determined as 26.3. In addition, the results for the half-maximal inhibitory concentration (IC50) in series [1] and in series [3] were below 1 nM and 1 nM, respectively. In series [2], the “RLM % Qh (%)” value was 48%.

Turning to `CC(=O)Nc1ncc(CN2C[C@H](Oc3cc(N4CCCC4)ncn3)C[C@@H]2C)s1` [Example 1-129, N-(5-(((2S,4R)-2-methyl-4-((6-(pyrrolidin-1-yl)pyrimidin-4-yl)oxy)pyrrolidin-1-yl)methyl)thiazol-2-yl)acetamide], the efflux ratio at 2 h in the series on P-gp (MDR1) was determined as 25.5. The IC50 in series [1] was below 1 nM; in series [3], 1 nM. In addition, the “RLM % Qh (%)” value in series [2] is given as 65%.

Take `CC(=O)Nc1ncc(CN2C[C@H](Oc3cc(N4CCOCC4)ncn3)C[C@@H]2C)s1` [Example 1-130, N-(5-(((2S,4R)-2-methyl-4-((6-morpholinopyrimidin-4-yl)oxy)pyrrolidin-1-yl)methyl)thiazol-2-yl)acetamide]: the efflux ratio at 2 h in the series with P-gp (MDR1) was 30.3. The 50% inhibitory concentration (IC50) in series [1] was below 1 nM; in series [3], 3 nM. Besides, the “RLM % Qh (%)” value in series [2] is on record as 37%.

Take `CC(=O)Nc1ncc(CN2C[C@H](Oc3cc(N(C)C)ncn3)C[C@@H]2C)s1` [Example 1-131, N-(5-(((2S,4R)-4-((6-(dimethylamino)pyrimidin-4-yl)oxy)-2-methylpyrrolidin-1-yl)methyl)thiazol-2-yl)acetamide]: the efflux ratio at 2 h in the series on P-gp (MDR1) amounted to 17.8. Besides, the IC50 in series [1] is below 1 nM; in series [3] it was 1 nM. Further, the “RLM % Qh (%)” value in series [2] came to 58%.

For the molecule `CCN(C)c1cc(O[C@@H]2C[C@H](C)N(Cc3cnc(NC(C)=O)s3)C2)ncn1` [Example 1-132, N-(5-(((2S,4R)-4-((6-(ethyl(methyl)amino)pyrimidin-4-yl)oxy)-2-methylpyrrolidin-1-yl)methyl)thiazol-2-yl)acetamide], in the series with P-gp (MDR1), the efflux ratio at 2 h stood at 19.7. The 50% inhibitory concentration (IC50) in series [1] is below 1 nM; in series [3], 2 nM. The “RLM % Qh (%)” value in series [2] turned out to be 76%.

Regarding `CC(=O)Nc1ncc(CN2C[C@H](Oc3cc(N4CCC4)ncn3)C[C@@H]2C)s1` [Example 1-133, N-(5-(((2S,4R)-4-((6-(azetidin-1-yl)pyrimidin-4-yl)oxy)-2-methylpyrrolidin-1-yl)methyl)thiazol-2-yl)acetamide], the efflux ratio at 2 h in the series on P-gp (MDR1) stood at 23.6. In addition, the half-maximal inhibitory concentration (IC50) in series [1] was below 1 nM; in series [3], 1 nM. In series [2], the “RLM % Qh (%)” value is on record as 43%.

In the case of `CC(=O)Nc1ncc(CN2C[C@H](Oc3cc(NC4CCC4)ncn3)C[C@@H]2C)s1` [Example 1-134, N-(5-(((2S,4R)-4-((6-(cyclobutylamino)pyrimidin-4-yl)oxy)-2-methylpyrrolidin-1-yl)methyl)thiazol-2-yl)acetamide], the efflux ratio at 2 h in the series on P-gp (MDR1) came out at 53.4. Further, the 50% inhibitory concentration (IC50) in series [1] is below 1 nM; in series [3] it was 1 nM. In addition, in series [2], the “RLM % Qh (%)” value amounted to 70%.

Take `CCNc1cc(O[C@@H]2C[C@H](C)N(Cc3cnc(NC(C)=O)s3)C2)ncn1` [Example 1-135, N-(5-(((2S,4R)-4-((6-(ethylamino)pyrimidin-4-yl)oxy)-2-methylpyrrolidin-1-yl)methyl)thiazol-2-yl)acetamide]: the efflux ratio at 2 h in the series on P-gp (MDR1) was determined as 76.5. Also, the figures for the 50% inhibitory concentration (IC50) in series [1] and in series [3] were below 1 nM and 1 nM, respectively. Further, the “RLM % Qh (%)” value in series [2] is recorded as 36%.

For the molecule `CC(=O)Nc1ncc(CN2C[C@H](Oc3cc(NC(C)C)ncn3)C[C@@H]2C)s1` [Example 1-136, N-(5-(((2S,4R)-4-((6-(isopropylamino)pyrimidin-4-yl)oxy)-2-methylpyrrolidin-1-yl)methyl)thiazol-2-yl)acetamide], the efflux ratio at 2 h in the series with P-gp (MDR1) stood at 32. Besides, the figures for the half-inhibitory concentration (IC50) in series [1] and in series [3] were below 1 nM and 2 nM, respectively. Further, in series [2], the “RLM % Qh (%)” value is 24%.
